Assay [1] relates to MCF-7 cells (breast cancer cells expressing estrogen receptors). As to the kind of experiment: Anti-proliferative effect, [3H]-thymidine incorporation into DNA. The format is cell-based, human. Particulars: line MCF-7, increasing concentrations, up to 72 hours, FIG. 1. How it is done: (§1) The activity of the tetramerous derivative has been evaluated both in breast cancer cells grown in laboratory expressing estrogen receptors (line MCF-7) and in cells which are negative for said receptors (line MDA-MB-234).
(§2) MCF-7 and MDA-MB-234 cells have been grown in laboratory in a DMEM medium added with 10% of bovine fetal serum, 1% of a penicillin-streptomycin solution, 1% of a solution of non-essential amino acids, 2 mM glutamine and for MCF-7 also with 10 ug/ml of insulin. For the tests the cells are taken and used in their logarithmic growth phase, suspending them again the same fresh medium and exposing them to the tetramerous derivative up to 72 hours at 37° C. in an atmosphere with 5% of CO2. Before the treatment the cells are grown for some hours so as to adhere well to the plastic and start proliferating. In the tests concerning the evaluation of the anti-proliferative activity the synthesis of DNA is evaluated by adding to the cultures 3 μCi/ml of [3H]-thymidine 6 hours before the end of the treatment.
(§3) The cells are exposed during the culture to increasing concentrations of tetramerous derivative, then evaluating the degree of inhibition of their proliferation by incorporating into the DNA tritium-added thymidine (Cover C. M. et al., 1998, Journal of Biological Chemistry no. 273, page 3838-3847).
On the technique in general: Dividing cells build labelled thymidine or BrdU into new DNA.

In assay [2] the test system is MDA-MB-234 cells (negative for estrogen receptors). Described as above. The format is cell-based, human. The note with it: line MDA-MB-234, increasing concentrations, up to 72 hours, FIG. 2. How it is done: as §1, §2, §3
Assay [3] relates to inhibitor p27. The assay can be described thus: Western blot, p27 in MDA-MB-234. The format is cell-based, human. The text has this:
(§4) SDS-PAGE (Laemmli U.K. 1970, Nature 227, 680-685) and Western Blot (Towbin H., Staehelin T., Gordon J. 1979, Proc. Natl:Acad. Sci. USA 76, 4350-4354) techniques have been used to analyze the expression of proteins known as fundamental targets (markers) in the control of the cellular cycle, whose modifications often lead to an uncontrolled cell proliferation: cyclin-dependent kinase cdk6 (Cover C. M., et al, 1998, J. Biol. Chem. 273, 3838-3847), inhibitor p27 (Wang X., et al., 1997, Oncogene 15, 2991-2997; Vidal A., Koff A. 2000, Gene 247, 1-15) and retinoblastoma Rb (Dyson N. 1998, Genes & Development 12, 2245-2262; Guardavaccaro D., et al., 2000, Mol. Cell. Biol. 20 (5), 1797-1815).
(§5) After growing the cells as previously described, the cell cultures undergo the action of increasing doses of tetramerous derivative. Then culture samples are taken and the cells are lysated with B buffer (Hepes 20 mM pH 7.5, NaCl 420 mM, MgCl2 1.5 mM, EDTA 0.2 mM, glycerol 25%) in presence of antiproteolytic agents Nonidet P40 0.5% (v/v), kept under ice for 20 minutes and centrifuged at 12,000 rpm for 10 minutes at 4° C. […]
(§6) Said markers are then evaluated as previously described on estrogen-negative cell line MDA-MB-234.

Assay [4] relates to retinoblastoma Rb. The assay can be described thus: Western blot, phosphorylation of Rb factor (pRb). The format is cell-based. The note with it: Homo sapiens, FIG. 9.
Excerpt: as §4
(§7) After growing the cells as previously described, the cell cultures undergo the action of increasing doses of tetramerous derivative. Then culture samples are taken and the cells are lysated with B buffer (Hepes 20 mM pH 7.5, NaCl 420 mM, MgCl2 1.5 mM, EDTA 0.2 mM, glycerol 25%) in presence of antiproteolytic agents Nonidet P40 0.5% (v/v), kept under ice for 20 minutes and centrifuged at 12,000 rpm for 10 minutes at 4° C.
(§8) The cell lysate (supernatant liquor) is then diluted 1:1 with Sample Buffer 2× and charged into SDS-PAGE at 12% of acrylamide following Laemmli's method (Laemmli U.K. 1970, Nature 227, 680-685). […]
(In western blotting, separated proteins are transferred to a membrane and probed.)

Assay [5] relates to cyclin-dependent kinase cdk6. As to the kind of experiment: Western blot, level of expression of cdk6 in MCF-7. The format is cell-based, human. Particulars: FIG. 6.
Excerpt: as §4, §7, §8

Assay [6] relates to enzyme cdk6. The assay can be described thus: Western blot, cdk6 in MDA-MB-234. The format is cell-based, human.
Excerpt: as §4, §5, §6

Assay [7] relates to inhibitor p27. As to the kind of experiment: Western blot, level of protein p27 in MCF-7. The note with it: MCF-7, same concentrations as for cdk6, FIG. 7. The format is cell-based, human.
Excerpt: as §4, §7, §8

Assay [8] relates to MCF-7 cells. The assay can be described thus: Cytotoxicity, vital cell count with trypan blue. The format is cell-based, human. The procedure:
(§9) In a second set of tests the activity of the tetramerous derivative on the two cell lines has been evaluated as cytotoxicity using a method (Magnani M. et al., 1995, Biochemical Journal no. 312, page 115-123) which allows to recognize vital from dead cells.
(§10) MCF-7 and MDA-MB-234 cells have been grown as previously described. Then, after 24 and after 72 hours of exposition to the tetramerous derivative they are taken and counted in duplicate in a hemocytometer using trypan blue dye to exclude dead cells.

For assay [9], the system named is MDA-MB-234 cells. The assay can be described thus: Cytotoxicity, vital cell count with trypan blue. The format is cell-based, human. Particulars: MDA-MB-234, FIG. 4. The procedure: as §9, §10

`c1ccc2c3c([nH]c2c1)Cc1c([nH]c2ccccc12)Cc1c([nH]c2ccccc12)Cc1c([nH]c2ccccc12)C3` [tetramerous derivative]: the “inhibition of cell proliferation” value in [1] and in assay [2] was “inhibits in a dose-dependent way” throughout. In addition, in assay [3], the “level of inhibitor p27” value was “increase”. The compound also registered an inhibition at 30 µM in assay [4] of 60%. Further, the “level of expression of cdk6” value is “great reduction” in [5] (MCF-7, 15 μM) and “sudden decrease” in assay [5] (MCF-7, 50 μM). Also, in assay [6], the “level of enzyme cdk6” value is recorded as “reduction”. Moreover, the “level of protein p27” value in assay [7] was “increases”. The “toxicity (percentage of vital cells) in relation to time of administration” value in assay [8] (MCF-7, 24 and 72 hours, FIG. 5) is “time-dependent”. In addition, the “toxicity (percentage of vital cells) in relation to amount administered” value in assay [8] (MCF-7, FIG. 3) was “dose-dependent”; in [9], “dose-dependent”.

As a reminder, the inhibition is the percentage by which the read-out fell short of the control.
